Like-named read-outs stand apart in the source and are kept apart here. Where only a bound is given, the exact number is not on record here.

The subject of data set [1] is Fa2N-4 cells and primary human hepatocytes.
The test system of another data set is CYP2B6. Particulars: cited from earlier work.
In a further data set the test system is MDR1 (P-glycoprotein). As to the kind of experiment: Invader assay MDR1 mRNA induction in Fa2N-4 cells. The class given is cell-based, human. Particulars: 48 hours.
The test system of data set [2] is Fa2N-4 cells and primary human hepatocytes. As to the kind of experiment: Toxicity by LDH release and resazurin reduction, Fa2N-4 cells compared with primary human hepatocytes. The following applies: Same or Different toxicity response in the two cell types.
Data set [3] has as its system CYP3A4. The following applies: human.
In data set [4] the test system is CYP1A2.
Another data set concerns UGT1A. As to the kind of experiment: Invader assay UGT1A mRNA induction in Fa2N-4 cells. The class given is cell-based, human. The following applies: 48 hours.
Data set [5] concerns CYP3A4.
In data set [6] the test system is CYP1A2. The following applies: cited from earlier work.
Data set [7] concerns CYP3A4. Particulars: human. This is another data set of the same source.
The subject of a further data set is albumin. As to the kind of experiment: Effect of dexamethasone on albumin secretion by Fa2N-4 cells (ELISA). The class given is cell-based, human. The following applies: Fa2N-4 (passage 32); dexamethasone 1.0 μM; 48 hrs.
Data set [8] deals with CYP1A2. As to the kind of experiment: CYP1A2 activity induction in Fa2N-4 cells (phenacetin, LC/MS/MS). The class given is cell-based, human.
A further data set relates to Fa2N-4 cells. As to the kind of experiment: α-GST release toxicity test in Fa2N-4 cells (FIG. 22). The following applies: 72-hour exposure, up to 100 μM.
The mark [9] stands for this setting: activity based on 7-ethoxy-4-trifluoromethylcoumarin O-dealkylation.
Setting [10] is: activity based on S-mephenytoin N-demethylation.

With `CO[C@H]1/C=C/O[C@@]2(C)Oc3c(C)c(O)c4c(O)c(c(/C=N/N5CCN(C)CC5)c(O)c4c3C2=O)NC(=O)/C(C)=C\C=C\[C@H](C)[C@H](O)[C@@H](C)[C@@H](O)[C@@H](C)[C@H](OC(C)=O)[C@@H]1C` [Rifampin], the “Cellular Response (Fa2N-4 cells compared with primary human hepatocytes)” value in data set [1] was “Same”. In the data set on CYP2B6 (setting [9]), the “Human hepatocytes Average induction, CYP2B6” value is on record as 4.1 fold; the “Human hepatocytes Median induction, CYP2B6” value is 2.9 fold; the “Human hepatocytes induction (range), CYP2B6” value is not above 14 fold. Moreover, in the data set with CYP2B6 (setting [10]), the “Human hepatocytes Average induction, CYP2B6” value is reported as 13 fold; the “Human hepatocytes Median induction, CYP2B6” value is recorded as 8.5 fold; the “Human hepatocytes induction (range), CYP2B6” value was not above 71 fold. Besides, in the data set on MDR1 (P-glycoprotein), the “MDR1 (P-glycoprotein) mRNA induction” value turned out to be 3 fold.

Consider `Cc1c(C)c2c(c(C)c1O)CCC(C)(COc1ccc(CC3SC(=O)NC3=O)cc1)O2` (stereo not shown) [Troglitazone], for which, in [1], the “Cellular Response (Fa2N-4 cells compared with primary human hepatocytes)” value was “Different”, the “Non-toxic Compound / Toxic Compound” value is given as “Toxic” and the “sensitivity of Fa2N-4 cells relative to primary hepatocytes” value was “more sensitive than primary hepatocytes”.

As for `CC1=CC(=O)c2ccccc2C1=O` [Menadione], in data set [1], the “Cellular Response (Fa2N-4 cells compared with primary human hepatocytes)” value is listed as “Different”, the “Non-toxic Compound / Toxic Compound” value is recorded as “Toxic” and the “sensitivity of Fa2N-4 cells relative to primary hepatocytes” value was “less sensitive”.

Take `CCC1(c2ccccc2)C(=O)NC(=O)NC1=O` [Phenobarbital]: the “Cellular Response (Fa2N-4 cells compared with primary human hepatocytes)” value in data set [2] is recorded as “Same”. In addition, the “production of the 6-β testosterone metabolite” value with CYP3A4 [3] was “weaker CYP3A4 inducers”.

On to `O=C1NC(=O)C(c2ccccc2)(c2ccccc2)N1` [Phenytoin], for which, in data set [1], the “Cellular Response (Fa2N-4 cells compared with primary human hepatocytes)” value is on record as “Same” and the “Non-toxic Compound / Toxic Compound” value is “Phenytoin”.

On to `c1ccc2c(c1)cc1ccc3cccc4ccc2c1c34` [Benzo[a]pyrene], for which, in data set [1], the “Cellular Response (Fa2N-4 cells compared with primary human hepatocytes)” value is “Different”, the “Non-toxic Compound / Toxic Compound” value is “Toxic” and the “sensitivity of Fa2N-4 cells relative to primary hepatocytes” value was “more sensitive than primary hepatocytes”.

`Cc1c(OCC(F)(F)F)ccnc1C[S+]([O-])c1nc2ccccc2[nH]1` (stereo not shown) [Lansoprazole]: in data set [1], the “Cellular Response (Fa2N-4 cells compared with primary human hepatocytes)” value is on record as “Same” and the “Non-toxic Compound / Toxic Compound” value was “Lansoprazole”.

Regarding `CO[C@H]1C[C@H](O[C@H]2[C@H](C)[C@@H](O[C@@H]3O[C@H](C)C[C@H](N(C)C)[C@H]3OC(C)=O)[C@@H](C)C[C@@]3(CO3)C(=O)[C@H](C)[C@@H](OC(C)=O)[C@@H](C)[C@@H](C)OC(=O)[C@@H]2C)O[C@@H](C)[C@@H]1OC(C)=O` [Troleandomycin], in [1], the “Cellular Response (Fa2N-4 cells compared with primary human hepatocytes)” value is “Same” and the “Non-toxic Compound / Toxic Compound” value is given as “Troleandomycin”.

Consider `O=c1cc(-c2ccccc2)oc2ccc3ccccc3c12` [BNF, β-naphthoflavone], for which the “Fa2N-4 cells Fold-increase, CYP1A2” value in the data set on CYP1A2 [4] came to 1.5 fold. Besides, in the data set with UGT1A, the “UGT1A mRNA induction” value was 2 fold. The “expression of CYP3A4 protein (immunoblot)” value in the data set with CYP3A4 [5] is “does not induce CYP3A4 protein expression”. Moreover, in the data set on CYP1A2 [6], the “Human hepatocytes Average induction, CYP1A2” value was 13 fold; the “Human hepatocytes Median induction, CYP1A2” value is 8.4 fold; the “Human hepatocytes induction (range), CYP1A2” value is “(2-56) fold”. In the data set with CYP1A2 [6] (hepatocytes), the “Primary cells Fold-increase, CYP1A2” value was 13 fold.

Turning to `NC(=O)N1c2ccccc2C=Cc2ccccc21` [Carbamazepine], in data set [1], the “Cellular Response (Fa2N-4 cells compared with primary human hepatocytes)” value is “Same” and the “Non-toxic Compound / Toxic Compound” value is “Carbamazepine”.

As to `C=C(C)[C@H]1Cc2c(ccc3c2O[C@@H]2COc4cc(OC)c(OC)cc4[C@@H]2C3=O)O1` [Rotenone], the “Cellular Response (Fa2N-4 cells compared with primary human hepatocytes)” value in data set [2] was “Same”.

For `CCCN(CCC)S(=O)(=O)c1ccc(C(=O)O)cc1` [Probenicid], in [1], the “Cellular Response (Fa2N-4 cells compared with primary human hepatocytes)” value is on record as “Same” and the “Non-toxic Compound / Toxic Compound” value is “Probenicid”.

For the molecule `CN(Cc1cnc2nc(N)nc(N)c2n1)c1ccc(C(=O)N[C@@H](CCC(=O)O)C(=O)O)cc1` [Methotrexate], in [1], the “Cellular Response (Fa2N-4 cells compared with primary human hepatocytes)” value is reported as “Same” and the “Non-toxic Compound / Toxic Compound” value is “Methotrexate”.

Regarding `NC(=O)OCC(COC(N)=O)c1ccccc1` [Felbamate], in [1], the “Cellular Response (Fa2N-4 cells compared with primary human hepatocytes)” value is “Same” and the “Non-toxic Compound / Toxic Compound” value is reported as “Felbamate”.

In the case of `Clc1ccccc1C(c1ccccc1)(c1ccccc1)n1ccnc1` [clotrimazole], the “CYP3A4 activity induction (FIG. 20)” value in the data set on CYP3A4 [7] is listed as “CYP3A4 induction is masked by its inhibitory effect”.

In the data set on albumin, `C[C@@H]1C[C@H]2[C@@H]3CCC4=CC(=O)C=C[C@]4(C)[C@@]3(F)[C@@H](O)C[C@]2(C)[C@@]1(O)C(=O)CO` [Dexamethasone] came in with an Albumin of 100.0 µg/mL.

Consider `COc1ccc2[nH]c([S+]([O-])Cc3ncc(C)c(OC)c3C)nc2c1` (stereo not shown) [Omeprazole], for which, in [1], the “Cellular Response (Fa2N-4 cells compared with primary human hepatocytes)” value is recorded as “Same” and the “Non-toxic Compound / Toxic Compound” value is listed as “Omeprazole”. Further, the “induction of CYP1A2 activity” value in the data set on CYP1A2 [8] (Fa2N-4, 6-well plates, 100 μM omeprazole) is reported as “marked induction”. Besides, the “CYP1A2 activity induction over control” value in the data set with CYP1A2 [8] (Fa2N-4, 6-, 12-, 24- and 96-well format, all cases) is listed as “at least 9 fold”. In the data set on CYP1A2 [8] (Fa2N-4 cells), the “Fa2N-4 Average induction, CYP1A2” value came to 20 fold and the “Fa2N-4 induction (range), CYP1A2” value is “(9.3-29) fold”.

`O=C1Nc2ccc(Cl)cc2[C@@](C#CC2CC2)(C(F)(F)F)O1` [Efavirenz]: in [1], the “Cellular Response (Fa2N-4 cells compared with primary human hepatocytes)” value is listed as “Same” and the “Non-toxic Compound / Toxic Compound” value is given as “Efavirenz”.

Consider `CC1(COc2ccc(CC3SC(=O)NC3=O)cc2)CCCCC1` (stereo not shown) [Ciglitazone], for which, in [1], the “Cellular Response (Fa2N-4 cells compared with primary human hepatocytes)” value is listed as “Same” and the “Non-toxic Compound / Toxic Compound” value is “Ciglitazone”.

As to `Cc1ccc2cc3c(ccc4ccccc43)c3c2c1CC3` [3-Methylcholanthrene], the “Cellular Response (Fa2N-4 cells compared with primary human hepatocytes)” value in [2] is “Same”. In addition, the “release of α-GST into the medium” value in the data set with Fa2N-4 cells is reported as “caused a loss of membrane integrity”.
